Laboratory results published in US20130310256A1, “HERBICIDAL COMPOSITIONS COMPRISING 4-AMINO-3-CHLORO-5-FLUORO-6-(4-CHLORO-2-FLUORO-3-METHOXYPHENYL) PYRIDINE-2-CARBOXYLIC ACID OR A DERIVATIVE THEREOF AND VLCFA AND LIPID SYNTHESIS INHIBITING HERBICIDES” (DOW AGROSCIENCES LLC, priority 2008, published 2013).

What was measured:
XANST = assay: Example IV: pre-emergence soil-applied weed control, greenhouse; type: in vivo, Xanthium strumarium L. (common cocklebur); settings: 32 gae/ha, 29 DAA
Source text: (§1) Seeds or nutlets of the desired test plant species were planted in a soil matrix prepared by mixing a loam soil (32 percent silt, 23 percent clay, and 45 percent sand, with a pH of about 6.5 and an organic matter content of about 1.9 percent) and calcareous grit in an 80 to 20 ratio. The soil matrix was contained in plastic pots with a volume of 1 quart and a surface area of 83.6 square centimeters (cm^2).
(§2) Treatments consisted of the benzyl ester of 4-amino-3-chloro-5-fluoro-6-(4-chloro-2-fluoro-3-methoxy-phenyl)pyridine-2-carboxylic acid (compound A) formulated as an SC (suspension concentrate) and various herbicidal components alone and in combination. Forms of compound A were applied on an acid equivalent basis.
(§3) Other herbicidal components were applied on an active ingredient basis and included very long chain fatty acid (VLCFA) synthesis-inhibiting and fatty acid/lipid synthesis-inhibiting herbicides alachlor (technical grade material), dimethenamid-P formulated as Outlook®, and S-metolachlor formulated as Dual® II Magnum.
(§4) Treatment requirements were calculated based upon the rates being tested, the concentration of active ingredient or acid equivalent in the formulation, and a 12 mL application volume at a rate of 187 L/ha.
(§5) For treatments comprised of formulated compounds, measured amounts of compounds were placed individually in 25 mL glass vials and diluted in a volume of 1.25% (v/v) Agri-Dex® crop oil concentrate (COC) to obtain 12× stock solutions. […] Application solutions were prepared by adding an appropriate amount of each stock solution (e.g., 1 mL) and diluted to the appropriate final concentrations with the addition of 10 mL of an aqueous mixture of 1.25% (v/v) COC so that the final spray solutions contained 1.25% (v/v) COC.
For treatments comprised of technical compounds, weighed amounts can be placed individually in 25 mL glass vials and dissolved in a volume of 97:3 (v/v) acetone/DMSO to obtain 12× stock solutions. […] Application solutions can be prepared by adding an appropriate amount of each stock solution (e.g., 1 mL) and diluted to the appropriate final concentrations with the addition of 10 mL of an aqueous mixture of 1.5% (v/v) COC so that the final spray solutions contain 1.25% (v/v) COC. […]
For treatments comprised of formulated and technical compounds, weighed amounts of the technical materials were placed individually in 25 mL glass vials and dissolved in a volume of 97:3 (v/v) acetone/DMSO to obtain 12× stock solutions, and measured amounts of the formulated compounds were placed individually in 25 mL glass vials and diluted in a volume of 1.5% (v/v) COC or water to obtain 12× stock solutions. […]

GALAP = assay: Example III: post-emergence foliar-applied weed control in cereal crops, greenhouse; type: in vivo, Galium aparine L.; settings: 21 DAA
Experimental: (§6) Seeds of the desired test plant species were planted in Sun Gro MetroMix® 306 planting mixture, which typically has a pH of 6.0 to 6.8 and an organic matter content of about 30 percent, in plastic pots with a surface area of 103.2 square centimeters (cm^2). When required to ensure good germination and healthy plants, a fungicide treatment and/or other chemical or physical treatment was applied. The plants were grown for 7-36 days in a greenhouse with an approximate 14 hour photoperiod which was maintained at about 18° C. during the day and 17° C. during the night. Nutrients and water were added on a regular basis and supplemental lighting was provided with overhead metal halide 1000-Watt lamps as necessary. The plants were employed for testing when they reached the second or third true leaf stage.
(§7) Treatments consisted of the benzyl ester of 4-amino-3-chloro-5-fluoro-6-(4-chloro-2-fluoro-3-methoxy-phenyl)pyridine-2-carboxylic acid (Compound A), formulated as an SC (suspension concentrate), and a second cereal herbicide alone and in combination.
(§8) Measured aliquots of the benzyl ester of 4-amino-3-chloro-5-fluoro-6-(4-chloro-2-fluoro-3-methoxy-phenyl)pyridine-2-carboxylic acid (Compound A) were placed in 25 milliliter (mL) glass vials and diluted in a volume of 1.25% (v/v) Agri-dex crop oil concentrated to obtain stock solutions. Compound requirements are based upon a 12 mL application volume at a rate of 187 liters per hectare (L/ha). Spray solutions of the second cereal herbicide and experimental compound mixtures were prepared by adding the stock solutions to the appropriate amount of dilution solution to form 12 mL spray solution with active ingredients in two- and three-way combinations. Formulated compounds were applied to the plant material with an overhead Mandel track sprayer equipped with an 8002E nozzle calibrated to deliver 187 L/ha over an application area of 0.503 square meters (m^2) at a spray height of 18 inches (46 cm) above average plant canopy. Control plants were sprayed in the same manner with the solvent blank.
(§9) The treated plants and control plants were placed in a greenhouse as described above and watered by sub-irrigation to prevent wash-off of the test compounds. After 20-22 days, the condition of the test plants as compared with that of the control plants was determined visually and scored on a scale of 0 to 100 percent where 0 corresponds to no injury and 100 corresponds to complete kill.
(§10) Colby's equation was used to determine the herbicidal effects expected from the mixtures (Colby, S. R. 1967. Calculation of the synergistic and antagonistic response of herbicide combinations. Weeds 15:20-22.).

CHEAL = assay: as above; type: in vivo, Chenopodium album L.; settings: 21 DAA
Experimental: as §6, §7, §8, §9, §10

IPOHE = assay: Example IV: pre-emergence soil-applied weed control, greenhouse; type: in vivo, Ipomoea hederacea Jacq. (ivyleaf morningglory)
Source text: as §1, §2, §3, §4, §5
For treatments comprised of technical compounds, weighed amounts can be placed individually in 25 mL glass vials and dissolved in a volume of 97:3 (v/v) acetone/DMSO to obtain 12× stock solutions. […] Application solutions can be prepared by adding an appropriate amount of each stock solution (e.g., 1 mL) and diluted to the appropriate final concentrations with the addition of 10 mL of an aqueous mixture of 1.5% (v/v) COC so that the final spray solutions contain 1.25% (v/v) COC. When technical materials are used, the concentrated stock solutions can be added to the spray solutions so that the final acetone and DMSO concentrations of the application solutions are 16.2% and 0.5%, respectively.
For treatments comprised of formulated and technical compounds, weighed amounts of the technical materials were placed individually in 25 mL glass vials and dissolved in a volume of 97:3 (v/v) acetone/DMSO to obtain 12× stock solutions, and measured amounts of the formulated compounds were placed individually in 25 mL glass vials and diluted in a volume of 1.5% (v/v) COC or water to obtain 12× stock solutions. […] Application solutions were prepared by adding an appropriate amount of each stock solution (e.g., 1 mL) and diluted to the appropriate final concentrations with the addition of an appropriate amount of an aqueous mixture of 1.5% (v/v) COC so that the final spray solutions contained 1.25% (v/v) COC. As required, additional water and/or 97:3 (v/v) acetone/DMSO was added to individual application solutions so that the final acetone and DMSO concentrations of the application solutions being compared were 8.1% and 0.25%, respectively.
All stock solutions and applications solutions were visually inspected for compound compatibility prior to application. Spray solutions were applied to the soil with an overhead Mandel track sprayer equipped with a 8002E nozzles calibrated to deliver 187 L/ha over an application area of 0.503 m^2 at a spray height of 18 inches (46 cm) above average pot height. Control pots were sprayed in the same manner with the solvent blank.
The treated and control pots were placed in a greenhouse and top watered as needed. […]

SASKR = assay: Example III: post-emergence foliar-applied weed control in cereal crops, greenhouse; type: in vivo, Salsola tragus L.; settings: 21 DAA
Experimental: as §6, §7, §8, §9, §10

COc1c(Cl)ccc(-c2nc(C(=O)OCc3ccccc3)c(Cl)c(N)c2F)c1F [Compound A Benzyl Ester, benzyl ester of 4-amino-3-chloro-5-fluoro-6-(4-chloro-2-fluoro-3-methoxy-phenyl)pyridine-2-carboxylic acid]
Visual Weed Control XANST Obs (XANST): 5%
Visual Weed Control GALAP Obs (GALAP; 2.5 gai/ha): 55%
Visual Weed Control GALAP Obs (GALAP; 5 gai/ha): 66%
Visual Weed Control GALAP Obs (GALAP; 10 gai/ha): 77%
Visual Weed Control CHEAL Obs (CHEAL; 2.5 gai/ha): 50%
Visual Weed Control CHEAL Obs (CHEAL; 5 gai/ha): 58%
Visual Weed Control IPOHE Obs (IPOHE; 16 gae/ha, 28 DAA): 13%
Visual Weed Control IPOHE Obs (IPOHE; 32 gae/ha, 27 DAA): 28%
Visual Weed Control IPOHE Obs (IPOHE; 32 gae/ha, 28 DAA): 23%
Visual Weed Control SASKR Obs (SASKR; 2.5 gai/ha): 15%
Visual Weed Control SASKR Obs (SASKR; 5 gai/ha): 50%
Visual Weed Control SASKR Obs (SASKR; 10 gai/ha): 67%
